Measured values published in patent US10670605B2, “Cysteine reactive probes and uses thereof” (The Scripps Research Institute, priority 2015, dated 2020).
One block for each molecule: values may come before it.

Columns and labels:
Assay in all cases: Competitive isoTOP-ABPP in situ (fragment-treated cells)
Format in all cases: cell-based
[1] = biological target: T1, cysteines in MDA-MB-231 and Ramos cells (Homo sapiens, UniProt P51946)
T1 sequence (P51946 1-323): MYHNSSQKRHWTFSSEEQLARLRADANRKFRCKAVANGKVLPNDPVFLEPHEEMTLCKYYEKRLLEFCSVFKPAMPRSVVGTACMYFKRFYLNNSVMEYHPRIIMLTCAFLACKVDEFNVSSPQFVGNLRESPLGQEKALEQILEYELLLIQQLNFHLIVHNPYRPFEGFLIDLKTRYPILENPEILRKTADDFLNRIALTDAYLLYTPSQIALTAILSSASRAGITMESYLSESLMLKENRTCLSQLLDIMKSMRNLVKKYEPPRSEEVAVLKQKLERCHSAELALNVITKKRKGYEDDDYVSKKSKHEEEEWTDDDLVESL

[2] = biological target: T2, cysteines in MDA-MB-231 and Ramos cells (Homo sapiens, UniProt Q13162)
T2 sequence (Q13162 38-271): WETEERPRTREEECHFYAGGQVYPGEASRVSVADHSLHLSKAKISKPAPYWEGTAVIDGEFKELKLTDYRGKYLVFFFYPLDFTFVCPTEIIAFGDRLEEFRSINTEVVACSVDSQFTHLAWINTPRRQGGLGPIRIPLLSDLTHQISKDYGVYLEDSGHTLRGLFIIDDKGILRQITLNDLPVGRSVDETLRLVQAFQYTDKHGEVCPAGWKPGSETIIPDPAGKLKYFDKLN

[3] = biological target: T3, cysteines in MDA-MB-231 and Ramos cells (Homo sapiens, UniProt Q15084)
T3 sequence (Q15084 20-440): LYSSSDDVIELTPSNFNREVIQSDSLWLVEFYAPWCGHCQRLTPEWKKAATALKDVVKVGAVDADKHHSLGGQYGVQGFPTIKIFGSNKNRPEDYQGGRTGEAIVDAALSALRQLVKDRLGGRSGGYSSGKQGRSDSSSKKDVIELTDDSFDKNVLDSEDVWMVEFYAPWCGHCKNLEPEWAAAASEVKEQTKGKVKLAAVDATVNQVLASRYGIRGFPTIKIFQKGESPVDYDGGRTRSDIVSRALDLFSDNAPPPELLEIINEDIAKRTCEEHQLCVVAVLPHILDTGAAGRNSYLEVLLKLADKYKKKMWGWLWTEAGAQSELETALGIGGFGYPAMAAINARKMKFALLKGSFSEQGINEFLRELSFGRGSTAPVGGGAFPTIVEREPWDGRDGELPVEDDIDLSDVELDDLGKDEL

[4] = biological target: cysteines in MDA-MB-231 and Ramos cells (Homo sapiens, UniProt Q02252)
[5] = biological target: T4, cysteines in MDA-MB-231 and Ramos cells (Homo sapiens, UniProt Q9NRG0)
T4 sequence (Q9NRG0 1-131): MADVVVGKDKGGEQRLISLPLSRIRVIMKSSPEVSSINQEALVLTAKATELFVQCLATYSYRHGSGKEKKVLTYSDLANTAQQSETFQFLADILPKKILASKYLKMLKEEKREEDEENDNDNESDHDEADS

[6] = biological target: T5, cysteines in MDA-MB-231 and Ramos cells (Homo sapiens, UniProt Q9BRA2)
T5 sequence (Q9BRA2 1-123): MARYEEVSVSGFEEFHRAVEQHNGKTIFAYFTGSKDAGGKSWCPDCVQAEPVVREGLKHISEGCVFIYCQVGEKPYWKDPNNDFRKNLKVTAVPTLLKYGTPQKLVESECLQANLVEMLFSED

[7] = biological target: T6, cysteines in MDA-MB-231 and Ramos cells (Homo sapiens, UniProt P49588)
T6 sequence (P49588 1-968): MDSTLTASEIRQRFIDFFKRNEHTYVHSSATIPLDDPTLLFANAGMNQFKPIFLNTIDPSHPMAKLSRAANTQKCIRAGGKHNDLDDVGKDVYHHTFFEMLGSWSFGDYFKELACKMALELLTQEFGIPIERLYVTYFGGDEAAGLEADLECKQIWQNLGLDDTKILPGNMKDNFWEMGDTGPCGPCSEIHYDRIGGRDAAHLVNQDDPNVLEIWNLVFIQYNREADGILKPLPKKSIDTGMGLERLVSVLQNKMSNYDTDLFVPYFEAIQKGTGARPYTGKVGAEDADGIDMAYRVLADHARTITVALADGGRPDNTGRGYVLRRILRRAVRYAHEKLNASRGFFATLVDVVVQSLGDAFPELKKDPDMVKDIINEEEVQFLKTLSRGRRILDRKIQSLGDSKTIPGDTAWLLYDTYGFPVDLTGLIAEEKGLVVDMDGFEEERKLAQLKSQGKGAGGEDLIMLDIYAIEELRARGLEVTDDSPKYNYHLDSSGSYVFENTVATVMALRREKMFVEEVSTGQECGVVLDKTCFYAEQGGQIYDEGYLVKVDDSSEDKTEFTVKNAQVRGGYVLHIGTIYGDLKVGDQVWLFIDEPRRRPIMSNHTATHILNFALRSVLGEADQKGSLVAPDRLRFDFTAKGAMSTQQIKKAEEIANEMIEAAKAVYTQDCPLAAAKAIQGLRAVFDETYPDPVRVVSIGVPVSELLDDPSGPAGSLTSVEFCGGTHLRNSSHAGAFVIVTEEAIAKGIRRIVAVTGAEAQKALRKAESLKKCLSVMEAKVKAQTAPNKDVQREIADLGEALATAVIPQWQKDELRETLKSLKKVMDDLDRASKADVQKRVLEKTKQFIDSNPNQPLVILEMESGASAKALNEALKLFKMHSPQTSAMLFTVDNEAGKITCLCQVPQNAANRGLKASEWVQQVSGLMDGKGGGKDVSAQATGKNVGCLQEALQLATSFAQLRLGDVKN

[8] = biological target: cysteines in MDA-MB-231 and Ramos cells (Homo sapiens, UniProt Q93009)
Sequence of cysteines in MDA-MB-231 and Ramos cells (Homo sapiens, UniProt Q93009) (Q93009 whole entry): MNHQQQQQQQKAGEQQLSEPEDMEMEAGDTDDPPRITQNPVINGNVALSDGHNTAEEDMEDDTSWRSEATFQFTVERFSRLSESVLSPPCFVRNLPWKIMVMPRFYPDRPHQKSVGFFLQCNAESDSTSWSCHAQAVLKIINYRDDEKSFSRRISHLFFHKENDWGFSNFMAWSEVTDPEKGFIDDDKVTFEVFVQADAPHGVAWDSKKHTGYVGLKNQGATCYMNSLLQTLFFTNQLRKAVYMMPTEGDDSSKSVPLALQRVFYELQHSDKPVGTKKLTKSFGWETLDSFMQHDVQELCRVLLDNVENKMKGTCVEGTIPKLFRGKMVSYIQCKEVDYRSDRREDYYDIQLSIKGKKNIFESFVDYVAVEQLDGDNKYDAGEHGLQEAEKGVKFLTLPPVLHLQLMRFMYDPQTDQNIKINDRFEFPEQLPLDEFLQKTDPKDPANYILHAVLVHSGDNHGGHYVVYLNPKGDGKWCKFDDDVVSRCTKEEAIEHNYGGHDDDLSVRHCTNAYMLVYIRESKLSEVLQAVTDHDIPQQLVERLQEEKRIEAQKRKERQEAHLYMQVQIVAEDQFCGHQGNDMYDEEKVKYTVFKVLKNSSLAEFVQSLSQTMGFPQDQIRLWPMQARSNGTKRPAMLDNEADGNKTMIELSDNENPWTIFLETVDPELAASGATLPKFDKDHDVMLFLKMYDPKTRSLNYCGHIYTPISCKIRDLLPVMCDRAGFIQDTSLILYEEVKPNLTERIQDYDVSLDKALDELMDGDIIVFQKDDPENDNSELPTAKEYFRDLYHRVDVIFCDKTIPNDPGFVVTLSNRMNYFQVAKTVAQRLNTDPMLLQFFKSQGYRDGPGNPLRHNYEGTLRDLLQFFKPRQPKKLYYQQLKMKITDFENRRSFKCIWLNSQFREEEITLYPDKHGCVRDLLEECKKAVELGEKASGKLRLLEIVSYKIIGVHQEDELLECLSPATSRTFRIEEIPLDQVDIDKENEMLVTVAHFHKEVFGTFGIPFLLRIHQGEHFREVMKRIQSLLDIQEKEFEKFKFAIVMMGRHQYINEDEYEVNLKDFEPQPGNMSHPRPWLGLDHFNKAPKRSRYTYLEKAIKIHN

Sequence of cysteines in MDA-MB-231 and Ramos cells (Homo sapiens, UniProt Q02252) (Q02252 34-535): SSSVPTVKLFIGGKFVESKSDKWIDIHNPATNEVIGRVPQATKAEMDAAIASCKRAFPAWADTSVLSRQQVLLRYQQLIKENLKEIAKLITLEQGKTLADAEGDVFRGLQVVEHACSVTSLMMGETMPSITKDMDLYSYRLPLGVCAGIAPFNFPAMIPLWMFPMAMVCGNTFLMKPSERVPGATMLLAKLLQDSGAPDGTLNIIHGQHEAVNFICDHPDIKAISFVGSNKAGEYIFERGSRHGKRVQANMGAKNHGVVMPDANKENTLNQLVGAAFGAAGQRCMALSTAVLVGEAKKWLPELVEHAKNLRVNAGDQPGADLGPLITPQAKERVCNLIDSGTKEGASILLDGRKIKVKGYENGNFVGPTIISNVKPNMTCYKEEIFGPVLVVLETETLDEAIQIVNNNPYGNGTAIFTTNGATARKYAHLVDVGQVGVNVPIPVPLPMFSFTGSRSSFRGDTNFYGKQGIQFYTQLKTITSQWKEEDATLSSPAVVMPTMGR

- isoTOP-ABPP ratio P51946_C244 ([1]; 200 μM, insitu, 231): 1.7
- isoTOP-ABPP ratio P49588_C773 ([7]; 200 μM, insitu, 231): 2.1
- isoTOP-ABPP ratio P49588_C773 ([7]; 200 μM, insitu, ramos): 1.7
- isoTOP-ABPP ratio Q13162_C51 ([2]; 200 μM, insitu, 231): 2.0
- isoTOP-ABPP ratio Q93009_C223 ([8]; 200 μM, insitu, 231): 2.5
- isoTOP-ABPP ratio Q15084_C55 ([3]; 200 μM, insitu, 231): 3.1
- isoTOP-ABPP ratio, Q15084_C190 ([3]; 200 μM, insitu, 231): 3.7
- isoTOP-ABPP ratio Q02252_C317 ([4]; 200 μM, insitu, 231): 1.5
- isoTOP-ABPP ratio Q02252_C317 ([4]; 200 μM, insitu, ramos): 0.7
- isoTOP-ABPP ratio Q9NRG0_C55 ([5]; 200 μM, insitu, 231): 2.7
- isoTOP-ABPP ratio Q9BRA2_C43 ([6]; 200 μM, insitu, 231): 20.0
SMILES: O=C(CCl)N1CCN(S(=O)(=O)c2ccccc2F)CC1 [compound 10]

- isoTOP-ABPP ratio P51946_C244 ([1]; 100 μM in situ 231): 1.3
- isoTOP-ABPP ratio P49588_C773 ([7]; 100 μM in situ 231): 0.9
- isoTOP-ABPP ratio Q13162_C51 ([2]; 100 μM in situ 231): 0.9
- isoTOP-ABPP ratio Q93009_C223 ([8]; 100 μM in situ 231): 1.0
- isoTOP-ABPP ratio Q15084_C55 ([3]; 100 μM in situ 231): 4.3
- isoTOP-ABPP ratio Q02252_C317 ([4]; 100 μM in situ 231): 0.9
- isoTOP-ABPP ratio Q9NRG0_C55 ([5]; 100 μM in situ 231): 1.1
- isoTOP-ABPP ratio Q9BRA2_C43 ([6]; 100 μM in situ 231): 17.7
SMILES: Cn1cc(S(=O)(=O)N2CCOCC2)cc1C(=O)NC(=O)CCl [compound 11]

- isoTOP-ABPP ratio P51946_C244 ([1]; 200 μM, insitu, 231): 1.3
- isoTOP-ABPP ratio P49588_C773 ([7]; 200 μM, insitu, 231): 0.9
- isoTOP-ABPP ratio Q13162_C51 ([2]; 200 μM, insitu, 231): 1.0
- isoTOP-ABPP ratio Q93009_C223 ([8]; 200 μM, insitu, 231): 3.1
- isoTOP-ABPP ratio Q15084_C55 ([3]; 200 μM, insitu, 231): 15.4
- isoTOP-ABPP ratio, Q15084_C190 ([3]; 200 μM, insitu, 231): 20.0
- isoTOP-ABPP ratio Q02252_C317 ([4]; 200 μM, insitu, 231): 3.2
- isoTOP-ABPP ratio Q9NRG0_C55 ([5]; 200 μM, insitu, 231): 20.0
- isoTOP-ABPP ratio Q9BRA2_C43 ([6]; 200 μM, insitu, 231): 20.0
SMILES: O=C(CCl)NC(=O)NC12CC3CC(CC(C3)C1)C2 [compound 12]

More lines, now with the values behind:

SMILES: COc1ccc2c(c1)CCCN2C(=O)CCl [compound 2]
- isoTOP-ABPP reactivity P51946_C244 CCNH ([1]; 200 μM, insitu, 231): 1.9
- isoTOP-ABPP reactivity Q13162_C51 PRDX4 ([2]; 200 μM, insitu, 231): 4.6
- isoTOP-ABPP reactivity Q15084_C55 PDIA6 ([3]; 200 μM, insitu, 231): 3.0
- isoTOP-ABPP reactivity Q02252_C317 ALDH6A1 ([4]; 200 μM, insitu, 231): 10.3
- isoTOP-ABPP reactivity Q9NRG0_C55 CHRAC1 ([5]; 200 μM, insitu, 231): 20.0
- isoTOP-ABPP reactivity Q9BRA2_C43 TXNDC17 ([6]; 200 μM, insitu, 231): 15.5

SMILES: COc1ccc(C2CC(c3cccs3)=NN2C(=O)CCl)cc1 (centres unmarked) [compound 4]
- isoTOP-ABPP reactivity P51946_C244 CCNH ([1]; 100 μM in situ 231): 5.3
- isoTOP-ABPP reactivity P49588_C773 AARS ([7]; 100 μM in situ 231): 1.3
- isoTOP-ABPP reactivity Q13162_C51 PRDX4 ([2]; 100 μM in situ 231): 1.2
- isoTOP-ABPP reactivity Q93009_C223 USP7 ([8]; 100 μM in situ 231): 6.8
- isoTOP-ABPP reactivity Q15084_C55 PDIA6 ([3]; 100 μM in situ 231): 4.9
- isoTOP-ABPP reactivity Q15084_C190 PDIA6 ([3]; 100 μM in situ 231): 20.0
- isoTOP-ABPP reactivity Q02252_C317 ALDH6A1 ([4]; 100 μM in situ 231): 14.4
- isoTOP-ABPP reactivity Q9NRG0_C55 CHRAC1 ([5]; 100 μM in situ 231): 20.0
- isoTOP-ABPP reactivity Q9BRA2_C43 TXNDC17 ([6]; 100 μM in situ 231): 3.5

SMILES: COc1cc2c(cc1OC)CN(C(=O)CCl)CC2 [compound 8]
- isoTOP-ABPP reactivity P49588_C773 AARS ([7]; 200 μM, insitu, 231): 1.5
- isoTOP-ABPP reactivity Q13162_C51 PRDX4 ([2]; 200 μM, insitu, 231): 1.4
- isoTOP-ABPP reactivity Q93009_C223 USP7 ([8]; 200 μM, insitu, 231): 20.0
- isoTOP-ABPP reactivity Q15084_C55 PDIA6 ([3]; 200 μM, insitu, 231): 4.4
- isoTOP-ABPP reactivity Q15084_C190 PDIA6 ([3]; 200 μM, insitu, 231): 5.2
- isoTOP-ABPP reactivity Q9NRG0_C55 CHRAC1 ([5]; 200 μM, insitu, 231): 7.4
- isoTOP-ABPP reactivity Q9BRA2_C43 TXNDC17 ([6]; 200 μM, insitu, 231): 20.0

SMILES: O=C(CCl)N1CCC(Cc2ccccc2)CC1 [compound 9]
- isoTOP-ABPP reactivity P49588_C773 AARS ([7]; 200 μM, insitu, 231): 1.5
- isoTOP-ABPP reactivity Q13162_C51 PRDX4 ([2]; 200 μM, insitu, 231): 3.3
- isoTOP-ABPP reactivity Q15084_C55 PDIA6 ([3]; 200 μM, insitu, 231): 2.1
- isoTOP-ABPP reactivity Q9NRG0_C55 CHRAC1 ([5]; 200 μM, insitu, 231): 2.9
- isoTOP-ABPP reactivity Q9BRA2_C43 TXNDC17 ([6]; 200 μM, insitu, 231): 20.0

SMILES: O=C(CCl)NCCc1c[nH]c2ccccc12 [compound 13]
- isoTOP-ABPP ratio P51946_C244 ([1]; 200 μM, insitu, 231): 1.0
- isoTOP-ABPP ratio P51946_C244 ([1]; 200 μM, insitu, ramos): 1.2
- isoTOP-ABPP ratio P49588_C773 ([7]; 200 μM, insitu, 231): 0.8
- isoTOP-ABPP ratio P49588_C773 ([7]; 200 μM, insitu, ramos): 1.1
- isoTOP-ABPP ratio Q93009_C223 ([8]; 200 μM, insitu, ramos): 1.3
- isoTOP-ABPP ratio Q15084_C55 ([3]; 200 μM, insitu, ramos): 1.5
- isoTOP-ABPP ratio Q02252_C317 ([4]; 200 μM, insitu, 231): 1.3
- isoTOP-ABPP ratio Q9NRG0_C55 ([5]; 200 μM, insitu, 231): 1.2
- isoTOP-ABPP ratio Q9BRA2_C43 ([6]; 200 μM, insitu, 231): 20.0
- isoTOP-ABPP ratio Q9BRA2_C43 ([6]; 200 μM, insitu, ramos): 5.2
